According to US3947569A, “Process for preparing the releasing hormone of luteinizing hormone (LH) and of follicle stimulating hormone (FSH), salts and compositions thereof, and intermediates therefor” (American Home Products Corporation, priority 1974, dated 1976):

Columns and labels:
[1] = system: LH and FSH release; experiment: bioassays / biological equivalence to the natural hormone (not specified further)
[2] = system: ovulation; experiment: induction of ovulation in the hamster (Arimura et al., Science 174, 511); format: in vivo
From the text: (§1) Exp. Biol. Med., 128, 807 (1968).

[3] = system: ovulation; experiment: modification of the ovulation induction assay in the rat (Arimura et al., Endocrinology 80, 515); format: in vivo
From the text: as §1

[4] = system: LH and FSH release; experiment: LH- and FSH-releasing activity tested in the radioimmunoassay of Niswender et al.; format: in vivo; conditions: acid addition salt
From the text: as §1

Row | Compound | pharmacological / biological equivalence ([1]; compared with the decapeptide or the natural hormone) | activity in induction of ovulation compared with the natural hormone ([2]; hamster) | time to ovulation following administration ([2]; rodents such as rats or hamsters: hamster) [h] | activity in induction of ovulation compared with the natural hormone ([3]; rat) | time to ovulation following administration ([3]; rodents such as rats or hamsters: rat) [h] | potency in bioassays compared with the natural product ([1]; hydrochloride salt) | LH- and FSH-releasing activity compared with the natural hormone [4]
1 | 5-Oxo-L-Prolyl-L-Histidyl-L-Tryptophyl-L-Seryl-L-Tyrosylglycyl-L-Leucyl-L-Arginyl-L-Prolylglycinamide (I) Zinc Complex [Example 19] | pharmacologically equivalent to the decapeptide |  |  |  |  |  | 
2 | CC(C)C[C@H](NC(=O)CNC(=O)[C@H](Cc1ccc(O)cc1)NC(=O)[C@H](CO)NC(=O)[C@H](Cc1c[nH]c2ccccc12)NC(=O)[C@H](Cc1c[nH]cn1)NC(=O)[C@@H]1CCC(=O)N1)C(=O)N[C@@H](CCCNC(=N)N)C(=O)N1CCC[C@H]1C(=O)NCC(N)=O [I, 5-oxo-L-prolyl-L-histidyl-L-tryptophyl-L-seryl-L-tyrosylglycyl-L-leucyl-L-arginyl-L-prolylglycinamide] |  | equally active | ≤ 18 | equally active | ≤ 18 | as potent as the latter | as active as the natural hormone
